# Patent publication US9163256B2, “Mutant receptors and their use in a nuclear receptor-based inducible gene expression system” (priority 2004, dated 2015)
# Key:
# Test in all cases: cell-based
# CfEcR-DEF mutant W238Y = CfEcR-DEF mutant W238Y (Choristoneura fumiferana, UniProt O77255, W521Y); conditions: for Emax: NIH3T3, 40 h, read-out: Rel Max FI
# Description: (§1) This construct was prepared in the same way as in switch 1.1 above except wild-type CfEcR-DEF was replaced with mutant CfEcR-DEF comprising a ligand binding domain comprising a substitution mutation selected from Table 1 below.
# (§2) DNAs were transfected into mouse NIH3T3 cells (ATCC) as follows. Standard methods for culture and maintenance of the cells were followed. Cells were harvested and plated 96-well plates at 2,500 cells per well, in 50 μL of growth medium containing 10% fetal bovine serum (FBS). Twenty-four hours later, the cells were treated with 35 μL of serum-free growth medium containing either dimethylsulfoxide (DMSO; control) or a DMSO solution of ligand. The cells were then transfected using Superfect (Qiagen Inc.) transfection reagent. For each well, 0.625 μL of Superfect was mixed with 14.2 μL of serum-free growth medium. 0.16 μg of reporter construct and 0.04 μg of each receptor construct were added to the transfection reagent mix. The contents of the transfection mix were mixed in a vortex mixer and let stand at room temperature for 30 minutes. At the end of incubation, 15 μL of transfection mix was added to the cells. The cells were maintained at 37° C. and 5% CO2 for 48 hours in 5% FBS.
# (§3) Reporter Assays: Cells were harvested 40 hours after adding ligands. 125 μL of passive lysis buffer (part of Dual-Luciferase reporter assay system from Promega Corporation) were added to each well of the […] plate. The plates were placed on a rotary shaker for 15 minutes. Twenty μL of lysate were assayed. Luciferase activity was measured using Dual-Luciferase reporter assay system from Promega Corporation following the manufacturer's instructions. Fold induction (FI) activities were calculated by dividing relative light units (“RLU”) in ligand treated cells with RLU in DMSO treated cells (untreated control).
# CfEcR-DEF mutant V96S = CfEcR-DEF mutant V96S (Choristoneura fumiferana, UniProt O77255, V379S); conditions: for Emax: NIH3T3, 40 h, read-out: Rel Max FI
# Description: as §1, §2, §3
# [1] = biological target: CfEcR-DEF mutant V128F/A110P (Choristoneura fumiferana, UniProt O77255, A393P/V411F)
# Description: as §1, §2, §3
# CfEcR-DEF mutant Y120W = CfEcR-DEF mutant Y120W (Choristoneura fumiferana, UniProt O77255, Y403W); conditions: for Emax: NIH3T3, 40 h, read-out: Rel Max FI
# Description: as §1, §2, §3
# CfEcR-DEF mutant F109L = CfEcR-DEF mutant F109L (Choristoneura fumiferana, UniProt O77255, F392L); conditions: for Emax: NIH3T3, 40 h, read-out: Rel Max FI
# Description: as §1, §2, §3
# CfEcR-DEF mutant R95W = CfEcR-DEF mutant R95W (Choristoneura fumiferana, UniProt O77255, R378W); conditions: for Emax: NIH3T3, 40 h, read-out: Rel Max FI
# Chain of CfEcR-DEF mutant R95W (O77255 entry or part of it R378W): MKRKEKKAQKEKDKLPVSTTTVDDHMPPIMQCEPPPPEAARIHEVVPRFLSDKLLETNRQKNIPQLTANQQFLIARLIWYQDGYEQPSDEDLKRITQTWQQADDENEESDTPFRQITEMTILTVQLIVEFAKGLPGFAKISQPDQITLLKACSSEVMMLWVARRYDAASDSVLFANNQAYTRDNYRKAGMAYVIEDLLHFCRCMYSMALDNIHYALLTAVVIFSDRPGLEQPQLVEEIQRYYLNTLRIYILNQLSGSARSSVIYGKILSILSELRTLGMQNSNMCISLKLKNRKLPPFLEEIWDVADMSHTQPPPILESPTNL
# Chain of CfEcR-DEF mutant R95W (P28702 299-449, further chain): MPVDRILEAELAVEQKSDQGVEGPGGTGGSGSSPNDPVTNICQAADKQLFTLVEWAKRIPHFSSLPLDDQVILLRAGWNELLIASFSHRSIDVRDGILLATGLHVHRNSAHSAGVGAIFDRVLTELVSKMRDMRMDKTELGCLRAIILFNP
# Description: as §1, §2, §3
# CfEcR-DEF mutant I51L = CfEcR-DEF mutant I51L (Choristoneura fumiferana, UniProt O77255, I334L); conditions: for Emax: NIH3T3, 40 h, read-out: Rel Max FI
# Chain of CfEcR-DEF mutant I51L (O77255 entry or part of it I334L): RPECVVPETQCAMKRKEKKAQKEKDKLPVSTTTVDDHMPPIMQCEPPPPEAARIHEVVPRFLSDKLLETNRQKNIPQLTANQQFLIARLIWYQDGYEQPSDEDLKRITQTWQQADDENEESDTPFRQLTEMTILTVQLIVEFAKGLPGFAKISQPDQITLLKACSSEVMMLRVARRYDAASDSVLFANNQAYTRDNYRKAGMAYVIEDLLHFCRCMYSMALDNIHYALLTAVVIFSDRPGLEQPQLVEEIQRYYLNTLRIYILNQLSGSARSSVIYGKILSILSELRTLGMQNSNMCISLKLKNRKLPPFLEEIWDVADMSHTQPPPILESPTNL
# Chain of CfEcR-DEF mutant I51L (P28702 299-449, further chain): as the sequence (P28702 299-449, further chain) above
# Description: as §1, §2, §3
# CfEcR-DEF mutant A110E = CfEcR-DEF mutant A110E (Choristoneura fumiferana, UniProt O77255, A393E); conditions: for Emax: NIH3T3, 40 h, read-out: Rel Max FI
# Chain of CfEcR-DEF mutant A110E (P28702 299-449, stated change not applied): as the sequence (P28702 299-449, further chain) above
# Chain of CfEcR-DEF mutant A110E (O77255 entry or part of it A393E): as the sequence (O77255 entry or part of it I334L) above, with L128I, A187E counted along it
# Description: as §1, §2, §3
# CfEcR-DEF mutant L132V = CfEcR-DEF mutant L132V (Choristoneura fumiferana, UniProt O77255, L415V); conditions: for Emax: NIH3T3, 40 h, read-out: Rel Max FI
# Chain of CfEcR-DEF mutant L132V (O77255 entry or part of it L415V): as the sequence (O77255 entry or part of it I334L) above, with L128I, L209V counted along it
# Chain of CfEcR-DEF mutant L132V (P28702 298-449, further chain): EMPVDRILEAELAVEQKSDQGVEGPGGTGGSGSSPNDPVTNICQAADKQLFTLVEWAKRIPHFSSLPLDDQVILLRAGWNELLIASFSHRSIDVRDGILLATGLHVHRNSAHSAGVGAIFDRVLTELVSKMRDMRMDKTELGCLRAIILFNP
# Description: as §1, §2, §3
# CfEcR-DEF mutant T52L = CfEcR-DEF mutant T52L (Choristoneura fumiferana, UniProt O77255, T335L); conditions: for Emax: NIH3T3, 40 h, read-out: Rel Max FI
# Description: as §1, §2, §3
# CfEcR-DEF mutant V96W = CfEcR-DEF mutant V96W (Choristoneura fumiferana, UniProt O77255, V379W); conditions: for Emax: NIH3T3, 40 h, read-out: Rel Max FI
# Chain of CfEcR-DEF mutant V96W (O77255 entry or part of it V379W): as the sequence (O77255 entry or part of it R378W) above, with W160R, V161W counted along it
# Chain of CfEcR-DEF mutant V96W (P28702 299-449, further chain): as the sequence (P28702 299-449, further chain) above
# Description: as §1, §2, §3
# CfEcR-DEF mutant V96L = CfEcR-DEF mutant V96L (Choristoneura fumiferana, UniProt O77255, V379L); conditions: for Emax: NIH3T3, 40 h, read-out: Rel Max FI
# Chain of CfEcR-DEF mutant V96L (O77255 entry or part of it V379L): as the sequence (O77255 entry or part of it R378W) above, with W160R, V161L counted along it
# Chain of CfEcR-DEF mutant V96L (P28702 299-449, further chain): as the sequence (P28702 299-449, further chain) above
# Description: as §1, §2, §3
# CfEcR-DEF mutant L234I = CfEcR-DEF mutant L234I (Choristoneura fumiferana, UniProt O77255, L517I); conditions: for Emax: NIH3T3, 40 h, read-out: Rel Max FI
# Description: as §1, §2, §3
# CfEcR-DEF mutant W238P = CfEcR-DEF mutant W238P (Choristoneura fumiferana, UniProt O77255, W521P); conditions: for Emax: NIH3T3, 40 h, read-out: Rel Max FI
# Description: as §1, §2, §3
# CfEcR-DEF mutant F109W = CfEcR-DEF mutant F109W (Choristoneura fumiferana, UniProt O77255, F392W); conditions: for Emax: NIH3T3, 40 h, read-out: Rel Max FI
# Description: as §1, §2, §3
# CfEcR-DEF mutant M54W = CfEcR-DEF mutant M54W (Choristoneura fumiferana, UniProt O77255, M337W); conditions: for Emax: NIH3T3, 40 h, read-out: Rel Max FI
# Chain of CfEcR-DEF mutant M54W (O77255 entry or part of it M337W): as the sequence (O77255 entry or part of it I334L) above, with L128I, M131W counted along it
# Chain of CfEcR-DEF mutant M54W (P28702 299-449, further chain): as the sequence (P28702 299-449, further chain) above
# Description: as §1, §2, §3
# CfEcR-DEF mutant L234M = CfEcR-DEF mutant L234M (Choristoneura fumiferana, UniProt O77255, L517M); conditions: for Emax: NIH3T3, 40 h, read-out: Rel Max FI
# Description: as §1, §2, §3
# [2] = biological target: CfEcR-DEF mutant N119F/V96T (Choristoneura fumiferana, UniProt O77255, N402F/V379T); conditions: for Emax: NIH3T3, 40 h, read-out: Rel Max FI
# Description: as §1, §2, §3
# CfEcR-DEF mutant A110W = CfEcR-DEF mutant A110W (Choristoneura fumiferana, UniProt O77255, A393W); conditions: for Emax: NIH3T3, 40 h, read-out: Rel Max FI
# Description: as §1, §2, §3
# CfEcR-DEF mutant M54T = CfEcR-DEF mutant M54T (Choristoneura fumiferana, UniProt O77255, M337T); conditions: for Emax: NIH3T3, 40 h, read-out: Rel Max FI
# Chain of CfEcR-DEF mutant M54T (O77255 entry or part of it M337T): as the sequence (O77255 entry or part of it I334L) above, with L128I, M131T counted along it
# Chain of CfEcR-DEF mutant M54T (P28702 299-449, further chain): as the sequence (P28702 299-449, further chain) above
# Description: as §1, §2, §3
# CfEcR-DEF mutant M92L = CfEcR-DEF mutant M92L (Choristoneura fumiferana, UniProt O77255, M375L); conditions: for Emax: NIH3T3, 40 h, read-out: Rel Max FI
# Chain of CfEcR-DEF mutant M92L (O77255 entry or part of it M375L): as the sequence (O77255 entry or part of it R378W) above, with M157L, W160R counted along it
# Chain of CfEcR-DEF mutant M92L (P28702 299-449, further chain): as the sequence (P28702 299-449, further chain) above
# Description: as §1, §2, §3
smiles,measurement,setting,value
"CCc1cccc(C(=O)NN(C(=O)c2cc(C)cc(C)c2)C(C)(C)C)c1C [RG-101691, 3,5-Dimethyl-benzoic acid N-tert-butyl-N′-(3-ethyl-2-methyl-benzoyl)-hydrazide]",EC50,CfEcR-DEF mutant W238Y,> 33 µM
same,Emax,CfEcR-DEF mutant W238Y,30%
same,EC50,CfEcR-DEF mutant V96S,0.87 µM
same,Emax,CfEcR-DEF mutant V96S,90%
same,EC50,[1],~5 µM
same,Emax,"[1]; NIH3T3, 40 h, read-out: Rel Max FI",8%
same,Rel Max FI,"[1]; mutant V128F/A110P, 2400 min",0.08
same,EC50,CfEcR-DEF mutant Y120W,9.76 µM
same,Emax,CfEcR-DEF mutant Y120W,89%
same,EC50,CfEcR-DEF mutant F109L,2.34 µM
same,Emax,CfEcR-DEF mutant F109L,68%
same,EC50,CfEcR-DEF mutant R95W,~10 µM
same,Emax,CfEcR-DEF mutant R95W,37%
same,EC50,CfEcR-DEF mutant I51L,2.28 µM
same,Emax,CfEcR-DEF mutant I51L,88%
same,EC50,CfEcR-DEF mutant A110E,0.85 µM
same,Emax,CfEcR-DEF mutant A110E,103%
same,EC50,CfEcR-DEF mutant L132V,0.66 µM
same,Emax,CfEcR-DEF mutant L132V,77%
same,EC50,CfEcR-DEF mutant T52L,0.21 µM
same,Emax,CfEcR-DEF mutant T52L,74%
same,EC50,CfEcR-DEF mutant V96W,3.61 µM
same,Emax,CfEcR-DEF mutant V96W,75%
same,EC50,CfEcR-DEF mutant V96L,1.68 µM
same,Emax,CfEcR-DEF mutant V96L,62%
same,EC50,CfEcR-DEF mutant L234I,0.94 µM
same,Emax,CfEcR-DEF mutant L234I,73%
same,EC50,CfEcR-DEF mutant W238P,0.65 µM
same,Emax,CfEcR-DEF mutant W238P,91%
same,EC50,CfEcR-DEF mutant F109W,0.49 µM
same,Emax,CfEcR-DEF mutant F109W,79%
same,EC50,CfEcR-DEF mutant M54W,1.63 µM
same,Emax,CfEcR-DEF mutant M54W,75%
same,EC50,CfEcR-DEF mutant L234M,1.79 µM
same,Emax,CfEcR-DEF mutant L234M,77%
same,EC50,[2],3.63 µM
same,Emax,[2],13%
same,EC50,CfEcR-DEF mutant A110W,1.06 µM
same,Emax,CfEcR-DEF mutant A110W,80%
same,EC50,CfEcR-DEF mutant M54T,0.03 µM
same,Emax,CfEcR-DEF mutant M54T,71%
same,EC50,CfEcR-DEF mutant M92L,9.9 µM
same,Emax,CfEcR-DEF mutant M92L,41%
"Cc1cc(C)cc(C(=O)N(NC(=O)c2cccc(C(C)C)c2C)C(C)(C)C)c1 [RG-102362, 3,5-Dimethyl-benzoic acid N-tert-butyl-N′-(3-isopropyl-2-methyl-benzoyl)-hydrazide]",EC50,CfEcR-DEF mutant W238Y,> 33 µM
same,Emax,CfEcR-DEF mutant W238Y,6%
same,EC50,CfEcR-DEF mutant V96S,2.07 µM
same,Emax,CfEcR-DEF mutant V96S,57%
same,EC50,CfEcR-DEF mutant Y120W,4.96 µM
same,Emax,CfEcR-DEF mutant Y120W,67%
same,EC50,CfEcR-DEF mutant F109L,~2.5 µM
same,Emax,CfEcR-DEF mutant F109L,17%
same,EC50,CfEcR-DEF mutant R95W,~8 µM
same,Emax,CfEcR-DEF mutant R95W,25%
same,EC50,CfEcR-DEF mutant I51L,3.35 µM
same,Emax,CfEcR-DEF mutant I51L,53%
same,EC50,CfEcR-DEF mutant A110E,1.02 µM
same,Emax,CfEcR-DEF mutant A110E,78%
same,EC50,CfEcR-DEF mutant L132V,0.29 µM
same,Emax,CfEcR-DEF mutant L132V,74%
same,EC50,CfEcR-DEF mutant T52L,0.33 µM
same,Emax,CfEcR-DEF mutant T52L,61%
same,EC50,CfEcR-DEF mutant V96W,3.26 µM
same,Emax,CfEcR-DEF mutant V96W,38%
same,EC50,CfEcR-DEF mutant V96L,2.67 µM
same,Emax,CfEcR-DEF mutant V96L,58%
same,EC50,CfEcR-DEF mutant L234I,2.46 µM
same,Emax,CfEcR-DEF mutant L234I,44%
same,EC50,CfEcR-DEF mutant W238P,0.29 µM
same,Emax,CfEcR-DEF mutant W238P,40%
same,EC50,CfEcR-DEF mutant F109W,1.41 µM
same,Emax,CfEcR-DEF mutant F109W,70%
same,EC50,CfEcR-DEF mutant M54W,1.24 µM
same,Emax,CfEcR-DEF mutant M54W,44%
same,EC50,CfEcR-DEF mutant L234M,2.04 µM
same,Emax,CfEcR-DEF mutant L234M,43%
same,EC50,[2],~10 µM
same,Emax,[2],19%
same,EC50,CfEcR-DEF mutant A110W,2.99 µM
same,Emax,CfEcR-DEF mutant A110W,55%
same,EC50,CfEcR-DEF mutant M54T,0.05 µM
same,Emax,CfEcR-DEF mutant M54T,66%
same,EC50,CfEcR-DEF mutant M92L,~20 µM
same,Emax,CfEcR-DEF mutant M92L,5%
